In assay [1] the test system is dopamine D-1 receptor. The settings on record: for Intrinsic Activity (adenylate cyclase assay): dopamine = 100, goldfish retina or rat striatum; for EC50: read-out: EC50 (agonist activity in adenylate cyclase assay), tissue from goldfish retina or rat striatum.
Experimental: In order to determine agonist activity, cell-free tissue homogenates are incubated in an ionic buffer solution containing ATP and the compound being evaluated. The tissue was obtained from either goldfish retina or rat striatum.
In assay [2] the target is dopamine D-1 receptor (Rattus norvegicus, UniProt P18901). Description: biochemical. The settings on record: D-1 Ki, rat caudate, [125I]SCH-23982.
Text: The compounds compete with the radiolabeled ligand for occupancy of the receptors and the molar potency of each compound was quantified.
The Ki values are inversely proportional to the affinity of the compound for the receptor.
The target of a further assay is dopamine D-2 receptor (Rattus norvegicus, UniProt P61169). The assay can be described thus: biochemical. The assay is classed as binding. The note with it: rat caudate, [125I]-p-aminophenylethyl spiroperidol; read-out: D-2 Ki. The procedure: Homogenized rat caudate was the source of the D-2 receptors. […] The molar affinity of the compound for the receptor binding site was calculated by the same method used for the D-1 receptor assay, assuming a competitive interaction between the compound and the radiolabeled ligand.

Structures can show the parent of a compound that is named as a salt.

Sequence of dopamine D-1 receptor (Rattus norvegicus, UniProt P18901) (P18901 whole entry): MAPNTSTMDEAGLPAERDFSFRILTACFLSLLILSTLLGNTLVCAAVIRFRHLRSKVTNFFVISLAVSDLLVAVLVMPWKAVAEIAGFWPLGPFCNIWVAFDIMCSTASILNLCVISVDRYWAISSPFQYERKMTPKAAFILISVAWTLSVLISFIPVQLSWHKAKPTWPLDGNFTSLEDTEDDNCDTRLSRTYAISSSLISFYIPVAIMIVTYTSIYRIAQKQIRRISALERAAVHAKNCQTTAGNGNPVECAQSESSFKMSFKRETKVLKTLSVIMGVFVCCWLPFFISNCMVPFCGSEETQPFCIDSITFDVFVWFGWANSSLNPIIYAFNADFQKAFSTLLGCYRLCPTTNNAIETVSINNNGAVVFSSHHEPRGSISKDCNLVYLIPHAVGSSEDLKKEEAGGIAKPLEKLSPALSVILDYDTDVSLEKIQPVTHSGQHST
Sequence of dopamine D-2 receptor (P61169 whole entry): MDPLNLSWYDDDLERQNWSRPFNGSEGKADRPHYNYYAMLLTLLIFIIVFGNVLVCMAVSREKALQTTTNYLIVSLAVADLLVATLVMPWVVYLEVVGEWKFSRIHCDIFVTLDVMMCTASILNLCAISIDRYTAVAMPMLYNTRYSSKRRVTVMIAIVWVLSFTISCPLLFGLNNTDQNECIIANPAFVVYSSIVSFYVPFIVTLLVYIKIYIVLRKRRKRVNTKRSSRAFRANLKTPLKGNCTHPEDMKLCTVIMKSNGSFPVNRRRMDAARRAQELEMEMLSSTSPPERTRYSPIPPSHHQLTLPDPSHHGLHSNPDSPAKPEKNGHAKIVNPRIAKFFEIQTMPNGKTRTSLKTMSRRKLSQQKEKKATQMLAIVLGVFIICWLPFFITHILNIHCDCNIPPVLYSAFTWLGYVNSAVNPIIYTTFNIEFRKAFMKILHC

As to `NC[C@@H]1S[C@H](c2ccccc2)Cc2c1ccc(O)c2O` (relative stereo) [Example 186, [1,3-cis]1-Aminomethyl-3-phenyl-3,4-dihydro-5,6-dihydroxy-1H-2-benzothiopyran Hydrochloride], in the assay with dopamine D-1 receptor [1], the “Intrinsic Activity (adenylate cyclase assay)” value (from here on “Intrinsic Activity”) is 95 and the EC50 (as a rule, the concentration needed to bring the measured effect to its halfway point) came out at 1300 nM. Besides, the Ki (commonly a dissociation constant, usually derived from enzyme kinetics or from competition with a known ligand) at dopamine D-1 receptor [2] worked out at 1900 nM. Further, at dopamine D-2 receptor, the Ki worked out at 34000 nM.
On to `CCNC[C@@H]1O[C@H](C(C)(C)C)Cc2c1ccc(O)c2O` [Example 128], for which, in the assay on dopamine D-1 receptor [1], the “Intrinsic Activity” value is reported as 108 and the EC50 came out at 87 nM. The Ki at dopamine D-1 receptor [2] amounted to 570 nM. Further, the Ki at dopamine D-2 receptor stood at 23000 nM.
In the same order, the values of `NC[C@@H]1O[C@H](COCc2ccccc2)Cc2c1ccc(O)c2O` (relative stereo) [Example 75] are 60, 290 nM, 480 nM and 4600 nM.
The matching figures for `CN1CCC2=C(C1)c1ccc(O)c(O)c1CC21CCCCC1` [Example 212]: 43, 480 nM, 630 nM and 700 nM.
In the same order, the values of `NCC1=CC2(CCCCCCCCC2)Cc2c1ccc(O)c2O` [Example 234] are 53, 2700 nM, 3900 nM and more than 10000 nM.
`NCCC(=O)Oc1ccc2c(c1OC(=O)CCN)CC(c1ccccc1)C=C2CN` (stereo not shown) [Example 27]: the EC50 on dopamine D-1 receptor [1] was determined as 200 nM. In addition, the Ki on dopamine D-1 receptor [2] was more than 10000 nM; on dopamine D-2 receptor, 6600 nM.
With `CCN1CCC2=C(C1)c1ccc(O)c(O)c1CC21CCCCCC1` [Example 251], in the assay on dopamine D-1 receptor [1], the “Intrinsic Activity” value was 41. Further, the EC50 on dopamine D-1 receptor [1] was found to be 470 nM. Further, the Ki at dopamine D-1 receptor [2] was found to be 530 nM; at dopamine D-2 receptor it was 1200 nM.
In the same order, the values of `CC(C)(C)C1Cc2c(ccc(O)c2O)C2=C1CCNC2` (stereo not shown) [Example 203] are 0, more than 10000 nM, 1000 nM and 4300 nM.
In the same order, the values of `COC(=O)Oc1ccc2c(c1OC(=O)OC)CC(c1ccccc1)C=C2CN` (stereo not shown) [Example 23] are 65, 1100 nM, 500 nM and more than 10000 nM.
In the same order, the values of `NCC1OC2(CCCCCCC2)Cc2c1ccc(O)c2O` (stereo not shown) [Example 94] are 110, 71 nM, 84 nM and more than 10000 nM.
As to `NCC1CC2(CCCCC2)Cc2c1ccc(O)c2O` (stereo not shown) [Example 194], in the assay with dopamine D-1 receptor [1], the “Intrinsic Activity” value was determined as 82 and the EC50 was determined as 58 nM. The molecule also came in with a Ki on dopamine D-1 receptor [2] of 4000 nM. Further, on dopamine D-2 receptor, the inhibitory constant (Ki) was more than 10000 nM.
The matching figures for `Oc1ccc2c(c1O)C[C@@H](c1ccccc1)O[C@H]2[C@H]1CCCN1` [Example 123]: 61, 770 nM, 8200 nM and more than 10000 nM.
In the same order, the values of `CCOC(=O)Oc1ccc2c(c1OC(=O)OCC)CC(c1ccccc1)C=C2CN` (stereo not shown) [Example 29] are 54, 1000 nM, 6000 nM and more than 10000 nM.
The matching figures for `NC[C@@H]1O[C@H](COc2ccc(Br)cc2)Cc2c1ccc(O)c2O` (relative stereo) [Example 58]: 63, 19 nM, 260 nM and 1200 nM.
As to `CC(C)(C)C(=O)NC[C@H]1Cc2c(ccc(O)c2O)[C@@H](CN)O1` (relative stereo) [Example 166], in the assay with dopamine D-1 receptor [1], the “Intrinsic Activity” value came to 97 and the EC50 stood at 180 nM. In addition, the affinity at dopamine D-1 receptor [2], expressed as Ki, was 4800 nM. On dopamine D-2 receptor, the Ki came to 2400 nM.
The matching figures for `NC[C@H]1O[C@@H](CN2CCCCC2)Cc2c1ccc(O)c2O` (relative stereo) [Example 158]: 100, 330 nM, 2300 nM and 6000 nM.
The matching figures for `NC[C@H]1O[C@@H](COc2ccccc2-c2ccccc2)Cc2c1ccc(O)c2O` (relative stereo) [Example 56]: 46, 430 nM, 2200 nM and 1300 nM.
The matching figures for `NC[C@H]1C[C@@H](c2ccc3ccccc3c2)Cc2c1ccc(O)c2O` (relative stereo) [Example 43]: 70, 150 nM, 2400 nM and 12000 nM.
As to `CNCC1OC2(CCCCCCCC2)Cc2c1ccc(O)c2O` (stereo not shown) [Example 224], in the assay on dopamine D-1 receptor [1], the “Intrinsic Activity” value is reported as 64 and the EC50 came out at 240 nM. This molecule had an inhibition constant (Ki) at dopamine D-1 receptor [2] of 230 nM. In addition, the inhibition constant (Ki) at dopamine D-2 receptor came to 2300 nM.
In the same order, the values of `CNCC1OC2(CCCCCCC2)Cc2c1ccc(O)c2O` (stereo not shown) [Example 142] are 71, 87 nM, 190 nM and more than 10000 nM.
The matching figures for `NC[C@@H]1O[C@H](Cc2ccccc2)Cc2c1ccc(O)c2O` (relative stereo) [Example 60]: 93, 37 nM, 530 nM and 2200 nM.
In the same order, the values of `NC[C@@H]1O[C@H](c2ccccc2)Cc2c1cc(Br)c(O)c2O` (relative stereo) [Example 62] are 111, 170 nM, 210 nM and 3700 nM.
On to `NC[C@H]1C[C@@H](c2cccc(O)c2)Cc2c1ccc(O)c2O` (relative stereo) [Example 42], for which, in the assay on dopamine D-1 receptor [1], the “Intrinsic Activity” value was 98. Moreover, the EC50 at dopamine D-1 receptor [1] is 6 nM. Also, the results for the Ki at dopamine D-1 receptor [2] and on dopamine D-2 receptor were 61 nM and 3900 nM, respectively.
In the same order, the values of `CNC[C@H]1C[C@@H](c2ccccc2)Cc2c1ccc(O)c2O` (relative stereo) [Example 150, [1,3-cis]5,6,Dihydroxy-1-(N-methyl)aminomethyl-3-phenyl-1,2,3,4-tetrahydro-naphthalene] are 102, 6 nM, 25 nM and 12000 nM.
On to `NC[C@H]1Cc2c(ccc(O)c2O)[C@@H](CN)O1` (relative stereo) [Example 154, [1,3-cis]1,3-Bis(aminomethyl)-3,4-dihydro-5,6-dihydroxy-1H-2-benzopyran Dihydrochloride], for which, in the assay with dopamine D-1 receptor [1], the “Intrinsic Activity” value is given as 95 and the EC50 is 100 nM. On dopamine D-1 receptor [2], this molecule showed a Ki of 1400 nM. In addition, at dopamine D-2 receptor, the inhibition constant Ki came to 17000 nM.
The matching figures for `CNCC1OC2(CCCCCC2)Cc2c1ccc(O)c2O` (stereo not shown) [Example 141]: 97, 80 nM, 120 nM and 2600 nM.
In the same order, the values of `Cl.NCc1cc(-c2ccccc2)cc2c(O)c(O)ccc12` [Example 46, 1-Aminomethyl-5,6-dihydroxy-3-phenylnaphthalene Hydrochloride] are 69, 220 nM, 1700 nM and more than 10000 nM.
In the same order, the values of `CNC[C@@H]1S[C@H](c2ccccc2)Cc2c1ccc(O)c2O` (relative stereo) [Example 187, [1,3-cis]1-(N-Methyl)aminomethyl-3-phenyl-3,4-dihydro-5,6-dihydroxy-1H-2-benzothiopyran Hydrochloride] are 70, 1200 nM, 2500 nM and 6400 nM.
`NC[C@H]1O[C@@H](CNC(=O)c2ccco2)Cc2c1ccc(O)c2O` (relative stereo) [Example 168]: in the assay with dopamine D-1 receptor [1], the “Intrinsic Activity” value is recorded as 103. Besides, at dopamine D-1 receptor [1], the EC50 was 270 nM. The Ki was 17000 nM at dopamine D-1 receptor [2] and more than 10000 nM on dopamine D-2 receptor.
The matching figures for `CNC[C@H]1O[C@@H](CCO)Cc2c1ccc(O)c2O` (relative stereo) [Example 174]: 90, 65 nM, 1200 nM and 3500 nM.
The matching figures for `O=CO.Oc1ccc2c(c1O)CC(c1ccccc1)C1=C2CNC1` (stereo not shown) [Example 184, 6,7-Dihydroxy-4-phenyl-2,3,4,5-tetrahydro-1H-benz[e]isoindole Formic Acid Salt]: 47, 22 nM, 70 nM and more than 10000 nM.
The matching figures for `NCC1=CC2(CCCCC2)Cc2c1ccc(O)c2O` [Example 189]: 65, 1500 nM, 3300 nM and more than 10000 nM.
Turning to `CC(C)C(=O)NC[C@H]1Cc2c(ccc(O)c2O)[C@@H](CN)O1` (relative stereo) [Example 171], in the assay on dopamine D-1 receptor [1], the “Intrinsic Activity” value is 124. Further, the EC50 on dopamine D-1 receptor [1] stood at 180 nM. Further, the Ki on dopamine D-1 receptor [2] was 530 nM; at dopamine D-2 receptor it was 810 nM.
The matching figures for `CN1CCC2=C(C1)c1ccc(O)c(O)c1CC21CCCC1` [Example 211]: 38, 63 nM, 580 nM and more than 10000 nM.
In the same order, the values of `NCC1OC2(CCCCC2)Cc2c1ccc(O)c2O` (stereo not shown) [Example 52] are 65, 71 nM, 900 nM and 6200 nM.

For the origin of these results see patent publication US5621133A (priority 1995, dated 1997).
